# From patent publication US9758520B2, “Substituted fused heterocycles as GPR119 modulators for the treatment of diabetes, obesity, dyslipidemia and related disorders” (SANOFI, priority 2014, dated 2017)
# Biological target: T1, human GPR119 (Homo sapiens, UniProt Q8TDV5)
# T1 construct: expressed in transfected cells
# T1 sequence (Q8TDV5 1-335): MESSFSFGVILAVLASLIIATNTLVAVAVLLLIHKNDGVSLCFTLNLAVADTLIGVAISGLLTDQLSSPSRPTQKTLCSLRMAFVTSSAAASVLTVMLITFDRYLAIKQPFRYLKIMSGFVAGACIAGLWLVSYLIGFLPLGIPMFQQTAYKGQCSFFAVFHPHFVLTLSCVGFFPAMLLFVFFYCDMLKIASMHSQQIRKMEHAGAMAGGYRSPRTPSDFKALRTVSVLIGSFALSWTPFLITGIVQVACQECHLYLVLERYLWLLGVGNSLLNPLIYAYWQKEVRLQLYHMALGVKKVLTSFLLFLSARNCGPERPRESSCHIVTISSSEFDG
# Assay: Functional cellular assay measuring GPR119-mediated cAMP release (HTRF) in HEK-293 cells stably expressing recombinant GPR119
# Format: cell-based
# Settings: cAMP response, cell line expressing human GPR119 (HEK-293), 30 minutes at room temperature
# Procedure: Functional Cellular Assays Measuring GPR119-Mediated cAMP Release
# Compounds of the invention, which are agonists of GPR119, were characterized by functional assays measuring the cAMP response of HEK-293 cell lines stably expressing recombinant GPR119 from man, mouse or rat, or by using a hamster cell line HIT-T15 expressing GPR119 endogenously. The cAMP content was determined using a kit based on homogenous time-resolved fluorescence (HTRF) from Cisbio Corp. (cat. no. 62AM4PEC). For preparation, cells were split into T175 culture flasks and grown to near confluency in medium (DMEM/10% FCS for HEK-293 cells, and F-12K medium/10% horse serum/2.5% FCS for HIT-T15 cells, respectively). Medium was then removed and cells washed with PBS lacking calcium and magnesium ions, followed by proteinase treatment with accutase (Sigma-Aldrich, cat. no. A6964). Detached cells were washed and resuspended in assay buffer (1×HBSS; 20 mM HEPES, 0.1% BSA, 2 mM IBMX) and cellular density determined. They were then diluted to 400000 cells/mL and 25 μL-aliquots dispensed to the wells of 96-well plates. For measurement, 25 μL of test compound in assay buffer was added and incubated for 30 minutes at room temperature. After addition of HTRF reagents diluted in lysis buffer, the plates were incubated for 1 hour, followed by measuring the fluorescence ratio at 665 vs. 620 nm. Potency of the agonists was quantified by determining the concentrations that caused 50% of the maximal response/activation (EC50). See Table 3 for exemplary data obtained using the cell line expressing human GPR119.
row,EC50 [µM],SMILES
1,11.3,"O=C1[C@H](Oc2ccc(OCC3CC3)nc2)CCN1c1ccc2nc(C3CC3)nn2c1 [Example 1-01, (3R)-3-[[6-(Cyclopropylmethoxy)-3-pyridyl]oxy]-1-(2-cyclopropyl-[1,2,4]triazolo[1,5-a]pyridin-6-yl)pyrrolidin-2-one]"
2,0.851,"O=C1[C@H](Oc2ccc(OCC3CC3)nc2)CCN1c1ccc2ncnn2c1 [Example 1-02, (3R)-3-[[6-(cyclopropylmethoxy)-3-pyridyl]oxy]-1-([1,2,4]triazolo[1,5-a]pyridin-6-yl)pyrrolidin-2-one]"
3,7.62,"O=C1[C@H](Oc2ccc(OCC3CC3)nc2)CCN1c1ccc2nccn2c1 [Example 1-03, (3R)-3-[[6-(cyclopropylmethoxy)-3-pyridyl]oxy]-1-imidazo[1,2-a]pyridin-6-yl-pyrrolidin-2-one]"
4,0.155,"COC(=O)Cn1c(C)c2ccc(N3CC[C@@H](Oc4ccc(OCC5CC5)nc4)C3=O)cn2c1=O [Example 1-04, methyl 2-[6-[(3R)-3-[[6-(cyclopropylmethoxy)-3-pyridyl]oxy]-2-oxo-pyrrolidin-1-yl]-1-methyl-3-oxo-imidazo[1,5-a]pyridin-2-yl]acetate]"
5,7.99,"O=C1[C@H](Oc2ccc(OCC3CC3)nc2)CCN1c1ccc2nncn2c1 [Example 1-05, (3R)-3-[[6-(cyclopropylmethoxy)-3-pyridyl]oxy]-1-([1,2,4]triazolo[4,3-a]pyridin-6-yl)pyrrolidin-2-one]"
6,17.3,"O=C(O)Cc1nc2ccc(N3CC[C@@H](Oc4ccc(OCC5CC5)nc4)C3=O)cn2n1 [Example 1-06, 2-[6-[(3R)-3-[[6-(cyclopropylmethoxy)-3-pyridyl]oxy]-2-oxo-pyrrolidin-1-yl]-[1,2,4]triazolo[1,5-a]pyridin-2-yl]acetic acid]"
7,1.58,"COC(=O)Cc1nc2ccc(N3CC[C@@H](Oc4ccc(OCC5CC5)nc4)C3=O)cn2n1 [Example 1-07, methyl 2-[6-[(3R)-3-[[6-(cyclopropylmethoxy)-3-pyridyl]oxy]-2-oxo-pyrrolidin-1-yl]-[1,2,4]triazolo[1,5-a]pyridin-2-yl]acetate]"
8,5.54,"COC(=O)c1nc2ccc(N3CC[C@@H](Oc4ccc(OCC5CC5)nc4)C3=O)cn2n1 [Example 1-08, methyl 6-[(3R)-3-[[6-(cyclopropylmethoxy)-3-pyridyl]oxy]-2-oxo-pyrrolidin-1-yl]-[1,2,4]triazolo[1,5-a]pyridine-2-carboxylate]"
9,0.191,"CN(C)C(=O)Cn1nc2ccc(N3CC[C@@H](Oc4ccc(OCC5CC5)nc4)C3=O)cn2c1=O [Example 1-09, 2-[6-[(3R)-3-[[6-(cyclopropylmethoxy)-3-pyridyl]oxy]-2-oxo-pyrrolidin-1-yl]-3-oxo-[1,2,4]triazolo[4,3-a]pyridin-2-yl]-N,N-dimethyl-acetamide]"
10,0.658,"O=C1[C@H](Oc2ccc(Oc3ccc(F)cc3)nc2)CCN1c1cc(F)c2n[nH]c(=O)n2c1 [Example 1-10, 8-fluoro-6-[(3R)-3-[[6-(4-fluorophenoxy)-3-pyridyl]oxy]-2-oxo-pyrrolidin-1-yl]-2H-[1,2,4]triazolo[4,3-a]pyridin-3-one]"
11,0.206,"CN(C)C(=O)Cn1nc2ccc(N3CC[C@@H](Oc4ccc(Oc5ccc(F)cc5)nc4)C3=O)cn2c1=O [Example 1-11, 2-[6-[(3R)-3-[[6-(4-fluorophenoxy)-3-pyridyl]oxy]-2-oxo-pyrrolidin-1-yl]-3-oxo-[1,2,4]triazolo[4,3-a]pyridin-2-yl]-N,N-dimethyl-acetamide]"
12,0.269,"CN(C)C(=O)Cn1nc2ccc(N3CC[C@@H](Oc4ccc(C(=O)CC5CC5)cc4)C3=O)cn2c1=O [Example 1-12, 2-[6-[(3R)-3-[4-(2-cyclopropylacetyl)phenoxy]-2-oxo-pyrrolidin-1-yl]-3-oxo-[1,2,4]triazolo[4,3-a]pyridin-2-yl]-N,N-dimethyl-acetamide]"
13,0.179,"CN(C)C(=O)Cn1nc2c(F)cc(N3CC[C@@H](Oc4ccc(C(=O)CC5CC5)cc4)C3=O)cn2c1=O [Example 1-13, 2-[6-[(3R)-3-[4-(2-cyclopropylacetyl)phenoxy]-2-oxo-pyrrolidin-1-yl]-8-fluoro-3-oxo-[1,2,4]triazolo[4,3-a]pyridin-2-yl]-N,N-dimethyl-acetamide]"
14,0.701,"O=C1[C@H](Oc2ccc(OCC3CC3)nc2)CCN1c1ccc2n[nH]c(=O)n2c1 [Example 1-14, 6-[(3R)-3-[[6-(cyclopropylmethoxy)-3-pyridyl]oxy]-2-oxo-pyrrolidin-1-yl]-2H-[1,2,4]triazolo[4,3-a]pyridin-3-one]"
15,0.924,"COC(=O)Cn1cc2ccc(N3CC[C@@H](Oc4ccc(OCC5CC5)nc4)C3=O)cc2n1 [Example 1-15, methyl 2-[6-[(3R)-3-[[6-(cyclopropylmethoxy)-3-pyridyl]oxy]-2-oxo-pyrrolidin-1-yl]indazol-2-yl]acetate]"
16,12,"O=C(O)Cn1cc2ccc(N3CC[C@@H](Oc4ccc(OCC5CC5)nc4)C3=O)cc2n1 [Example 1-16, 2-[6-[(3R)-3-[[6-(cyclopropylmethoxy)-3-pyridyl]oxy]-2-oxo-pyrrolidin-1-yl]indazol-2-yl]acetic acid]"
17,2.11,"O=C(O)Cn1nc2ccc(N3CC[C@@H](Oc4ccc(OCC5CC5)nc4)C3=O)cc2n1 [Example 1-17, 2-[5-[(3R)-3-[[6-(cyclopropylmethoxy)-3-pyridyl]oxy]-2-oxo-pyrrolidin-1-yl]benzotriazol-2-yl]acetic acid]"
18,0.034,"COC(=O)Cn1nc2ccc(N3CC[C@@H](Oc4ccc(OCC5CC5)nc4)C3=O)cc2n1 [Example 1-18, methyl 2-[5-[(3R)-3-[[6-(cyclopropylmethoxy)-3-pyridyl]oxy]-2-oxo-pyrrolidin-1-yl]benzotriazol-2-yl]acetate]"
19,> 100,"O=C(O)Cc1cn2cc(N3CC[C@@H](Oc4ccc(OCC5CC5)nc4)C3=O)ccc2n1 [Example 1-19, 2-[6-[(3R)-3-[[6-(cyclopropylmethoxy)-3-pyridyl]oxy]-2-oxo-pyrrolidin-1-yl]imidazo[1,2-a]pyridin-2-yl]acetic acid]"
20,9.92,"COC(=O)Cc1cn2cc(N3CC[C@@H](Oc4ccc(OCC5CC5)nc4)C3=O)ccc2n1 [Example 1-20, methyl 2-[6-[(3R)-3-[[6-(cyclopropylmethoxy)-3-pyridyl]oxy]-2-oxo-pyrrolidin-1-yl]imidazo[1,2-a]pyridin-2-yl]acetate]"
21,2.05,"Cn1nc2ccc(N3CC[C@@H](Oc4ccc(OCC5CC5)nc4)C3=O)cc2n1 [Example 1-21, (3R)-3-[[6-(cyclopropylmethoxy)-3-pyridyl]oxy]-1-(2-methylbenzotriazol-5-yl)pyrrolidin-2-one]"
22,0.182,"CN(C)C(=O)Cn1nc2cc(N3CC[C@@H](Oc4ccc(OCC5CC5)nc4)C3=O)cc(F)c2n1 [Example 1-22, 2-[6-[(3R)-3-[[6-(cyclopropylmethoxy)-3-pyridyl]oxy]-2-oxo-pyrrolidin-1-yl]-4-fluorobenzotriazol-2-yl]-N,N-dimethyl-acetamide]"
23,4.2,"Cn1nc2ccc(N3CC[C@@H](Oc4ccc(OCC5CC5)nc4)C3=O)cn2c1=O [Example 1-23, 6-[(3R)-3-[[6-(cyclopropylmethoxy)-3-pyridyl]oxy]-2-oxo-pyrrolidin-1-yl]-2-methyl-[1,2,4]triazolo[4,3-a]pyridin-3-one]"
24,6.17,"O=C(O)Cn1nc2ccc(N3CC[C@@H](Oc4ccc(OCC5CC5)nc4)C3=O)cn2c1=O [Example 1-24, 2-[6-[(3R)-3-[[6-(cyclopropylmethoxy)-3-pyridyl]oxy]-2-oxo-pyrrolidin-1-yl]-3-oxo-[1,2,4]triazolo[4,3-a]pyridin-2-yl]acetic acid]"
25,0.249,"O=C1[C@H](Oc2ccc(OCC3CC3)nc2)CCN1c1cc(F)c2n[nH]c(=O)n2c1 [Example 1-25, 6-[(3R)-3-[[6-(cyclopropylmethoxy)-3-pyridyl]oxy]-2-oxo-pyrrolidin-1-yl]-8-fluoro-2H-[1,2,4]triazolo[4,3-a]pyridin-3-one]"
26,0.113,"COC(=O)Cn1nc2ccc(N3CC[C@@H](Oc4ccc(OCC5CC5)nc4)C3=O)cn2c1=O [Example 1-26, methyl 2-[6-[(3R)-3-[[6-(cyclopropylmethoxy)-3-pyridyl]oxy]-2-oxo-pyrrolidin-1-yl]-3-oxo-[1,2,4]triazolo[4,3-a]pyridin-2-yl]acetate]"
27,1.87,"Cn1nc2c(F)cc(N3CC[C@@H](Oc4ccc(OCC5CC5)nc4)C3=O)cn2c1=O [Example 1-27, 6-[(3R)-3-[[6-(cyclopropylmethoxy)-3-pyridyl]oxy]-2-oxo-pyrrolidin-1-yl]-8-fluoro-2-methyl-[1,2,4]triazolo[4,3-a]pyridin-3-one]"
